In brackets after ≈: the same amount, converted by molar mass.
Columns and labels:
[1] = system: M. abscessus subsp. abscessus ATCC 19977; test: MIC, broth microdilution; format: cell-based, Mycobacterium abscessus; conditions: abscessus ATCC 19977 wild type, 90% growth inhibition, 3 days
Method: (§1) MIC was determined using the broth microdilution method in 96-well plates as described previously ([47]). Briefly, a 10-point 2-fold serial dilution of compounds was performed in 96-well plates (Costar 3370; Corning, USA) starting at twice the desired highest concentration. […] One hundred microliters of the bacterial suspension was seeded onto the 96-well plates containing 100 μl of the serially diluted compounds to give a final volume of 200 μl in each well with the final OD600 of 0.005. The plates were sealed with parafilm, placed onto wet paper towels in a lock-lock box and incubated for 3 days at 37°C with orbital shaking at 90 rpm. […] Absorbance values at day 3 were subtracted from the day 0 readout. Percent growth inhibition was calculated by dividing the absolute absorbance value of treated cells with untreated control and multiplying by 100. CLR was included in all MIC experiments as a positive control to monitor assay reproducibility. MIC was defined as 90% of growth inhibition relative to untreated controls.

[2] = system: M. abscessus subsp. abscessus Bamboo; test: MIC, broth microdilution; format: cell-based, Mycobacterium abscessus; conditions: abscessus Bamboo wild type, 90% growth inhibition, 3 days
Method: as §1

[3] = system: M. abscessus subsp. abscessus K21; test: MIC, broth microdilution; format: cell-based, Mycobacterium abscessus; conditions: Mycobacteroides abscessus, 72 h, 90% growth inhibition, 3 days
Method: as §1

[4] = system: M. abscessus subsp. abscessus M199; test: MIC, broth microdilution; format: cell-based, Mycobacterium abscessus; conditions: Mycobacteroides abscessus, 72 h, 90% growth inhibition, 3 days
Method: as §1

[5] = system: M. abscessus subsp. abscessus M337; test: MIC, broth microdilution; format: cell-based, Mycobacterium abscessus; conditions: Mycobacteroides abscessus, 72 h, 90% growth inhibition, 3 days
Method: as §1

[6] = system: M. abscessus subsp. abscessus M404; test: MIC, broth microdilution; format: cell-based, Mycobacterium abscessus; conditions: Mycobacteroides abscessus, 72 h, 90% growth inhibition, 3 days
Method: as §1

[7] = system: M. abscessus subsp. abscessus M421; test: MIC, broth microdilution; format: cell-based, Mycobacterium abscessus; conditions: Mycobacteroides abscessus, 72 h, 90% growth inhibition, 3 days
Method: as §1

[8] = system: M. abscessus subsp. abscessus M9; test: MIC, broth microdilution; format: cell-based, Mycobacterium abscessus; conditions: Mycobacteroides abscessus, 72 h, 90% growth inhibition, 3 days
Method: as §1

[9] = system: M. abscessus subsp. bolletii CCUG 50184T; test: MIC, broth microdilution; format: cell-based, Mycobacterium abscessus; conditions: Mycobacteroides abscessus, 72 h, 90% growth inhibition, 3 days
Method: as §1

[10] = system: M. abscessus subsp. bolletii M232; test: MIC, broth microdilution; format: cell-based, Mycobacterium abscessus; conditions: Mycobacteroides abscessus, 72 h, 90% growth inhibition, 3 days
Method: as §1

[11] = system: M. abscessus subsp. bolletii M506; test: MIC, broth microdilution; format: cell-based, Mycobacterium abscessus; conditions: Mycobacteroides abscessus, 72 h, 90% growth inhibition, 3 days
Method: as §1

[12] = system: M. abscessus subsp. massiliense CCUG 48898T; test: MIC, broth microdilution; format: cell-based, Mycobacterium abscessus; conditions: Mycobacteroides abscessus, 72 h, 90% growth inhibition, 3 days
Method: as §1

[13] = system: M. abscessus subsp. massiliense M111; test: MIC, broth microdilution; format: cell-based, Mycobacterium abscessus; conditions: Mycobacteroides abscessus, 72 h, 90% growth inhibition, 3 days
Method: as §1

[14] = system: M. abscessus subsp. abscessus Bamboo 844^r-2 (GyrA D91N); test: MIC, resistant mutant; format: cell-based, Mycobacterium abscessus; conditions: Mycobacteroides abscessus
[15] = system: M. abscessus subsp. abscessus Bamboo 844^r-3 (GyrB S473W); test: MIC, resistant mutant; format: cell-based, Mycobacterium abscessus; conditions: Mycobacteroides abscessus
[16] = system: M. abscessus subsp. abscessus ATCC 19977 844-TMF^r-4 (GyrB M474I); test: MIC, resistant mutant; format: cell-based, Mycobacterium abscessus; conditions: Mycobacteroides abscessus, ATCC19977
[17] = system: M. abscessus subsp. abscessus ATCC 19977 MXF^r-1 (GyrA D96Y); test: MIC, resistant mutant; format: cell-based, Mycobacterium abscessus; conditions: Mycobacteroides abscessus, ATCC19977
[18] = system: M. abscessus subsp. abscessus ATCC 19977 MXF^r-2 (GyrA D96N); test: MIC, resistant mutant; format: cell-based, Mycobacterium abscessus; conditions: Mycobacteroides abscessus, ATCC19977
[19] = system: M. abscessus subsp. abscessus ATCC 19977 MXF^r-3 (GyrA D96G); test: MIC, resistant mutant; format: cell-based, Mycobacterium abscessus; conditions: Mycobacteroides abscessus, ATCC19977
[20] = target: recombinant M. abscessus wild-type DNA gyrase (Mycobacteroides abscessus, UniProt B1ME45+B1ME58); test: biochemical; parameters: species or system Mycobacterium abscessus; conditions: wild-type DNA gyrase; for IC50: relaxed pBR322 substrate, read-out: IC50, supercoiling activity
recombinant M. abscessus wild-type DNA gyrase, sequence (B1ME58 entry or part of it): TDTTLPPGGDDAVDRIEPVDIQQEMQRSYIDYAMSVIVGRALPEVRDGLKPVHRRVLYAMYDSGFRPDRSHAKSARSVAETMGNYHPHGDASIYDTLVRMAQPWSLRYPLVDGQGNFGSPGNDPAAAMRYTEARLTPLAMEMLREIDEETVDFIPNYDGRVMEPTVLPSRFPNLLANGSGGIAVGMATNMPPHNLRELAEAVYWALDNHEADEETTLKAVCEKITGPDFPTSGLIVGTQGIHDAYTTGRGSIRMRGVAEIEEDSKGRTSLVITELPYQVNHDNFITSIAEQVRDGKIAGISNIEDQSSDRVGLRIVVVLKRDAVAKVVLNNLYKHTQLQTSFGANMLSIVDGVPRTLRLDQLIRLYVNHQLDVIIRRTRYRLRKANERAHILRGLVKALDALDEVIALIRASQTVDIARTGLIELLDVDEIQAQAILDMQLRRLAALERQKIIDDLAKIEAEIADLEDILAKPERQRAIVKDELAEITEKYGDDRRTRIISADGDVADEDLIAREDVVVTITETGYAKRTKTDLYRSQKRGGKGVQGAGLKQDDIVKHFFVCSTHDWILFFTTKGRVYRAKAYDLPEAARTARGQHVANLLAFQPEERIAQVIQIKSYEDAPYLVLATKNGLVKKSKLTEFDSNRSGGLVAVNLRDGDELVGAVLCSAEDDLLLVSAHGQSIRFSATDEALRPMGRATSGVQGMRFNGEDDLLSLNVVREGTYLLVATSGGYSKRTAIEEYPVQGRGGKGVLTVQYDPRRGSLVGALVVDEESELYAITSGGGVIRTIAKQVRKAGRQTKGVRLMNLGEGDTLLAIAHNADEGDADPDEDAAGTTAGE
recombinant M. abscessus wild-type DNA gyrase, sequence (B1ME45 entry or part of it): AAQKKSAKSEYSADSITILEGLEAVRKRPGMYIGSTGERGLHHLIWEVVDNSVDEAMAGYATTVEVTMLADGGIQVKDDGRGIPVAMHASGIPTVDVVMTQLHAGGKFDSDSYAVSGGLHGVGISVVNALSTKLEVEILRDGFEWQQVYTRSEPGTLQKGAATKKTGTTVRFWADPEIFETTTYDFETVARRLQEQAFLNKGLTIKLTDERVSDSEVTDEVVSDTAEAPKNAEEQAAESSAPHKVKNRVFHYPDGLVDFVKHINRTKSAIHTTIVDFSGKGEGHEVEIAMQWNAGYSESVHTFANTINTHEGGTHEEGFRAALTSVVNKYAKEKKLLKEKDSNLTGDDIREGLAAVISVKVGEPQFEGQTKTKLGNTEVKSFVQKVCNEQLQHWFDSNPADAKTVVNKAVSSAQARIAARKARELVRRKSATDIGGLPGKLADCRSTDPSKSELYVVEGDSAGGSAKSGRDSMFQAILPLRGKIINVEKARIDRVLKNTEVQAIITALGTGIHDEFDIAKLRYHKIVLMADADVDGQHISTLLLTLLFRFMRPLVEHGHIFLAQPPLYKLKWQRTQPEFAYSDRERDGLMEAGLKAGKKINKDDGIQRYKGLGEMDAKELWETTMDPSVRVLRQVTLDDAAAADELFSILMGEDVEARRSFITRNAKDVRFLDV

[21] = target: GyrA D91N mutant recombinant M. abscessus DNA gyrase (Mycobacteroides abscessus, UniProt B1ME45+B1ME58, D91N); format: biochemical, Mycobacterium abscessus
GyrA D91N mutant recombinant M. abscessus DNA gyrase, sequence (B1ME58 2-839, stated change not applied): as the sequence (B1ME58 entry or part of it) above
GyrA D91N mutant recombinant M. abscessus DNA gyrase, sequence (B1ME45 2-675, stated change not applied): as the sequence (B1ME45 entry or part of it) above

[22] = system: P4C-resistant M. abscessus strains; test: Cross-resistance, MICs for P4C-resistant strains; format: cell-based, Mycobacterium abscessus; conditions: P4C-resistant strains of Table 2
[23] = system: M. abscessus complex strains; test: MIC across reference strains and clinical isolates; format: cell-based, Mycobacterium abscessus; conditions: Mycobacteroides abscessus; reference strains and clinical isolates of Table 1; read-out: MICs ranging across the M. abscessus complex strains
Method: as §1

[24] = system: M. abscessus subsp. abscessus ATCC 19977; test: Time-concentration kill assay, planktonic cultures; format: cell-based, Mycobacterium abscessus; conditions: 1×, 4×, 8× MIC; CFU after 2 and 3 days
Method: At 0, 2, and 3 days, tubes were vortexed, and 20 μl of the cultures was transferred to round-bottom 96-well plates containing 180 μl of phosphate-buffered saline (PBS) (10010023; Thermo Fisher, USA) with 0.025% Tween 80 (PBS/Tween 80) for 10-fold serial dilution. To prevent compound carryover effects, we plated out serially diluted samples onto 7H10 agar supplemented with 0.4% activated charcoal (C9154; Sigma-Aldrich, USA) for all time points as described ([48]). CFU were enumerated after 4 days of incubation at 37°C.

[25] = system: M. abscessus subsp. abscessus ATCC 19977 biofilm; test: Antibiofilm activity, MBEC biofilm assay; format: cell-based, Mycobacterium abscessus; conditions: 1×, 4×, 8× MIC; surface-attached CFU after 2 and 3 days
Method: The antibiofilm activity of 844 and 844-TMF was determined employing the MBEC 96-well Biofilm assay kit (19111; Innovotech, Edmonton, AB, Canada) as described previously ([15]) with minor modifications. Briefly, exponentially growing M. abscessus subsp. abscessus ATCC 19977 cultures were spun down at 3,200 × g for 10 min and washed with 7H9 broth without Tween 80 (‘7H9’). Bacteria were resuspended in ‘7H9’ to an OD600 of 0.0125, and 150 μl was dispensed into the wells of Innovotech 96-well plates. Pegs (protruding from the specialized lids of the Innovotech multiwell plates) were inserted into the bacterial suspensions in the wells, and the cultures were grown 24 h with shaking at 110 rpm at 37°C to allow attachment and growth of the bacteria on the surface of the pegs. […] Biofilm growth on the pegs was measured by CFU determination. The pegs were washed in 200 μl ‘7H9’ medium, removed, and placed in 1.7-ml microcentrifuge tubes (87003-294; VWR, Radnor, PA, USA) containing 500 μl PBS/Tween 80 (0.025%). The tubes were vortexed at 2,000 rpm for 90 s to detach and suspend the bacteria from the pegs before samples were serially diluted and plated onto 7H10 agar supplemented with 0.4% activated charcoal to determine CFU/peg.

[26] = system: M. abscessus subsp. abscessus Bamboo; test: Selection and characterization of spontaneous resistant mutants; format: cell-based, Mycobacterium abscessus; conditions: agar with 8× MIC
[27] = Mycobacteroides abscessus, ATCC19977, 72 h
[28] = Mycobacteroides abscessus, 72 h

CCNC(=O)Nc1nc2cc(-c3cnc(C(C)(C)O)nc3)c(F)c([C@H]3CCCO3)c2[nH]1 [SPR719]
MIC [1, 27]: 0.6 µM (≈ 0.257 µg/mL)
MIC [2, 28]: 0.8 µM (≈ 0.343 µg/mL)
MIC [3]: 1.5 µM (≈ 0.643 µg/mL)
MIC [4]: 1.5 µM (≈ 0.643 µg/mL)
MIC [5]: 0.8 µM (≈ 0.343 µg/mL)
MIC [6]: 1.5 µM (≈ 0.643 µg/mL)
MIC [7]: 0.8 µM (≈ 0.343 µg/mL)
MIC [8]: 1.5 µM (≈ 0.643 µg/mL)
MIC [9]: 1.5 µM (≈ 0.643 µg/mL)
MIC [10]: 1.5 µM (≈ 0.643 µg/mL)
MIC [11]: 1.5 µM (≈ 0.643 µg/mL)
MIC [12]: 3 µM (≈ 1.29 µg/mL)
MIC [13]: 6.3 µM (≈ 2.7 µg/mL)
MIC [14]: 0.1 µM (≈ 0.0428 µg/mL)
MIC [15]: 0.05 µM (≈ 0.0214 µg/mL)
MIC [16]: 0.3 µM (≈ 0.129 µg/mL)
MIC [17]: 0.8 µM (≈ 0.343 µg/mL)
MIC [18]: 0.2 µM (≈ 0.0857 µg/mL)
MIC [19]: 0.3 µM (≈ 0.129 µg/mL)
IC50 [20]: 2.3 µM
effect on supercoiling activity ([20]; up to 50 μM): inhibited supercoiling activity
IC50, supercoiling activity [21]: same IC50 as the wild-type enzyme
cross-resistance caused by P4C resistance mutations [22]: did not cause cross-resistance

COc1ccc2nccc(NC(=O)C3CCN(CCc4ccc(Cl)cc4)CC3)c2n1 [compound 844]
MIC [1, 27]: 8 µM (≈ 3.4 µg/mL)
MIC [1]: 8 µM (≈ 3.4 µg/mL)
MIC [2, 28]: 12 µM (≈ 5.1 µg/mL)
MIC [2]: 12 µM (≈ 5.1 µg/mL)
MIC [3]: 14 µM (≈ 5.95 µg/mL)
MIC [4]: 6.3 µM (≈ 2.68 µg/mL)
MIC [5]: 6.3 µM (≈ 2.68 µg/mL)
MIC [6]: 6.3 µM (≈ 2.68 µg/mL)
MIC [7]: 6.3 µM (≈ 2.68 µg/mL)
MIC [8]: 6.3 µM (≈ 2.68 µg/mL)
MIC [9]: 14 µM (≈ 5.95 µg/mL)
MIC [10]: 6.3 µM (≈ 2.68 µg/mL)
MIC [11]: 6.3 µM (≈ 2.68 µg/mL)
MIC [12]: 14 µM (≈ 5.95 µg/mL)
MIC [13]: 12.5 µM (≈ 5.31 µg/mL)
MIC [14]: > 100 µM
MIC [15]: 90 µM (≈ 38.2 µg/mL)
MIC [16]: 40 µM (≈ 17 µg/mL)
MIC [17]: 40 µM (≈ 17 µg/mL)
MIC [18]: 15 µM (≈ 6.37 µg/mL)
MIC [19]: 15 µM (≈ 6.37 µg/mL)
MIC [23]: 6 to 14 µM (≈ 2.55 to 5.95 µg/mL)
IC50 [20]: 4.6 µM
effect on supercoiling activity ([21]; GyrA D91N mutant DNA gyrase, up to 50 μM): No inhibition
bactericidal activity in planktonic cultures [24]: bactericidal
bactericidal activity against M. abscessus grown as biofilm [25]: bactericidal
frequency of spontaneous resistance [26]: 10^−8 /CFU
